Laboratory results from US20080027063A1, “IMIDAZOPYRAZINES AS PROTEIN KINASE INHIBITORS” (Schering Corporation, priority 2006, published 2008).

Test system: CHK1
Test: CHK1 SPA Assay
Format: biochemical
Details: recombinant His-CHK1, CDC25C biotinylated peptide, 1 μM ATP, 2 hours, room temperature
Description: CHK1 SPA Assay An in vitro assay was developed that utilizes recombinant His-CHK1 expressed in the baculovirus expression system as an enzyme source and a biotinylated peptide based on CDC25C as substrate (biotin-[…]). Materials and Reagents: 1) CDC25C […]-term Biotinylated peptide substrate (25 mg), stored at -20° C., Custom Synthesis by Research Genetics: biotin-[…] 2) His-CHK1 In House lot P976, 235 μg/mL, stored at -80° C. 3) D-PBS (without CaCl and MgCl): GIBCO, Cat.# 14190-144 4) SPA beads: Amersham, Cat.# SPQ0032: 500 mg/vial • Add 10 mls of D-PBS to 500 mg of SPA beads to make a working concentration of 50 mg/ml. Store at 4° C. Use within 2 week after hydration. 5) 96-Well White Microplate with Bonded GF/B filter: Packard, Cat.# 6005177 6) Top seal-A 96 well Adhesive Film: Perkin Elmer, Cat.# 6005185 7) 96-well Non-Binding White Polystyrene Plate: Corning, Cat. # 6005177 8) MgCl2: Sigma, Cat.# M-8266 9) DTT: Promega, Cat.# V3155 10) ATP, stored at 4° C.: Sigma, Cat.# A-5394 11) γ^33P-ATP, 1000-3000 Ci/mMol: Amersham, Cat.# AH9968 12) NaCl: Fisher Scientific, Cat.# BP358-212 13) H3PO4 85% Fisher, Cat.#A242-500 14) Tris-HCL pH 8.0: Bio-Whittaker, Cat. # 16-[…] 15) Staurosporine, 100 ug: CALBIOCHEM. Cat. # 569397 16) Hypure Cell Culture Grade Water, 500 mL: HyClone, Cat.# SH30529.02 Reaction Mixtures: 1) Kinase Buffer: 50 mM Tris pH 8.0; 10 mM MgCl2; 1 mM DTT 2) His-CHK1, In House Lot P976, MW 30 KDa, stored at -80° C. 6 nM is required to yield positive controls of 5,000 CPM. For 1 plate (100 rxn): dilute 8 μL of 235 ug/mL (7.83 uM) stock in 2 mL Kinase Buffer. This makes a 31 nM mixture. Add 20 μL/well. This makes a final reaction concentration of 6 nM. 3) CDC25C Biotinylated peptide. Dilute CDC25C to 1 mg/mL (385 uM) stock and store at -20° C. For 1 plate (100 rxn): dilute 10 μL of 1 mg/mL peptide stock in 2 ml Kinase Buffer. This gives a 1.925 uM mix. Add 20 μL/rxn. This makes a final reaction concentration of 385 nM 4) ATP Mix. For 1 plate (100 rxn): dilute 10 μL of 1 mM ATP (cold) stock and 2 μL fresh P33-ATP (20 μCi) in 5 ml Kinase Buffer. This gives a 2 uM ATP (cold) solution; add 50 μl/well to start the reaction. Final volume is 100 μl/rxn so the final reaction concentrations will be 1 uM ATP (cold) and 0.2 μCi/reaction. 5) Stop Solution: For 1 plate add: To 10 mL Wash Buffer 2 (2M NaCl 1% H3PO4): 1 mL SPA bead slurry (50 mg); Add 100 μL/well 6) Wash buffer 1: 2 M NaCl 7) Wash buffer 2: 2 M NaCl, 1% H3PO4 Assay Procedure: [table] 1) Dilute compounds to desired concentrations in water/10% DMSO-this will give a final DMSO concentration of 1% in the reaction. Dispense 10 μl/rxn to appropriate wells. Add 10 μL 10% DMSO to positive (CHK1+CDC25C+ATP) and negative (CHK1+ATP only) control wells. […]

Row | Structure (SMILES) | IC50
1 | Nc1ncc(-c2cc(-c3ccccc3)cs2)n2cc([C@H]3CCCNC3)nc12 | 139 nM
2 | Nc1ncc(-c2cc(-c3ccc(Cl)cc3)cs2)n2cc([C@H]3CCCNC3)nc12 | 84 nM
3 | Cc1ccc(-c2cnc(N)c3nc(C4CCCNC4)cn23)s1 (stereo not shown) | 216 nM
4 | Nc1ncc(-c2cc3ccccc3s2)n2cc(C3CCCNC3)nc12 (stereo not shown) | 187 nM
